Results as given in patent publication US10669637B2, “Purine-based corrosion inhibitors” (Ecolab USA Inc., priority 2015, dated 2020).

Assay: Copper corrosion rate by linear polarization resistance
Conditions: for No FRC Corrosion Rate (mpy) / 1 ppm FRC Corrosion Rate (mpy): copper coupons, 5 ppm inhibitor, pH 7.0, 45° C.; for No FRC Corrosion Rate (mpy): absence of bleach, average over 20 to 24 hour period; for 1 ppm FRC Corrosion Rate (mpy): bleach maintained at 1 ppm FRC
Experimental: In addition, the corrosion rate of copper in the presence of benzimidazole, tolyltriazole, imidazole, pyrimidine, 6,6-dimethyladenine, and 6-methylpurine was determined using linear polarization resistance measurements. […] For each experiment, cylindrical copper coupons pre-polished using SIC 600 paper and fitted on a Pine rotator were immersed in a solution of corrosion inhibitor. […] The pH of the test water was maintained at 7.0 using carbon dioxide, and the water temperature was maintained at 45° C. throughout the experiment. […] Density: 8.92 g/cm^3; Copper Eq. Weight: 63.54 g; and Initial delay: 30 seconds. Next, the copper samples were exposed to a 25% bleach solution. […] The Rp in the absence and presence of bleach was collected and analyzed, and the average corrosion rate was calculated and recorded in Table 1. Corrosion rates were calculated in mils per year (mpy).

Row | Compound | No FRC Corrosion Rate (mpy) | 1 ppm FRC Corrosion Rate (mpy) | change of copper corrosion rate upon the addition of bleach (1 ppm FRC) | No FRC Corrosion Rate (mpy) (listed as adenine) | 1 ppm FRC Corrosion Rate (mpy) (listed as adenine)
1 | c1ccc2[nH]cnc2c1 [Compound 6, Benzimidazole] | 0.0890 | 0.9594 | – | – | –
2 | CN(C)c1ncnc2nc[nH]c12 [Compound 10, 6,6-Dimethyladenine] | 0.68 | 0.66 | – | – | –
3 | Oc1ncnc2nc[nH]c12 [Compound 4, Hypoxanthine] | 0.1036 | 0.1684 | – | – | –
4 | c1c[nH]cn1 [Compound 8, Imidazole] | 0.69 | 1.1 | – | – | –
5 | Clc1ncnc2nc[nH]c12 [Compound 3, 6-Chloropurine] | 0.04 | 0.16 | – | – | –
6 | Nc1ncnc2nc[nH]c12 [Compound 5, Adenine] | 0.1665 | 0.3571 | observed increase | 0.16 | 0.35
7 | c1cncnc1 [Compound 9, Pyrimidine] | 1.2 | 0.79 | – | – | –
8 | Cc1ncnc2nc[nH]c12 [Compound 11, 6-Methylpurine] | 0.74 | 0.44 | – | – | –
9 | Tolyltriazole [Compound 7] | 0.0214 | 0.0995 | – | – | –
